Measured values from ChEMBL document CHEMBL1143466, “Conformationally constrained N1-arylsulfonyltryptamine derivatives as 5-HT6 receptor antagonists” (Bioorg Med Chem Lett, 2005).

Legend:
[1] = molecular target: T1, 5-hydroxytryptamine receptor 6 (Homo sapiens, UniProt P50406); experiment: Displacement of [3H]LSD from cloned human 5-hydroxytryptamine 6 receptor expressed in HeLa cells; type: cell-based
[2] = molecular target: T1, 5-hydroxytryptamine receptor 6; experiment: Maximum inhibition of cAMP production in HeLa cells expressing human 5-HT6 receptors; type: functional, cell-based
[3] = molecular target: T1, 5-hydroxytryptamine receptor 6; experiment: Inhibition of cAMP production in HeLa cells expressing human 5-HT6 receptor; type: functional, cell-based
[4] = molecular target: T1, 5-hydroxytryptamine receptor 6; experiment: Effective concentration for cAMP production in HeLa cells expressing human 5-HT6 receptors; type: functional, cell-based
[5] = molecular target: T1, 5-hydroxytryptamine receptor 6; experiment: Maximum effective concentration for cAMP production in HeLa cells expressing human 5-HT6 receptors; type: functional, cell-based

T1 sequence (P50406 whole entry): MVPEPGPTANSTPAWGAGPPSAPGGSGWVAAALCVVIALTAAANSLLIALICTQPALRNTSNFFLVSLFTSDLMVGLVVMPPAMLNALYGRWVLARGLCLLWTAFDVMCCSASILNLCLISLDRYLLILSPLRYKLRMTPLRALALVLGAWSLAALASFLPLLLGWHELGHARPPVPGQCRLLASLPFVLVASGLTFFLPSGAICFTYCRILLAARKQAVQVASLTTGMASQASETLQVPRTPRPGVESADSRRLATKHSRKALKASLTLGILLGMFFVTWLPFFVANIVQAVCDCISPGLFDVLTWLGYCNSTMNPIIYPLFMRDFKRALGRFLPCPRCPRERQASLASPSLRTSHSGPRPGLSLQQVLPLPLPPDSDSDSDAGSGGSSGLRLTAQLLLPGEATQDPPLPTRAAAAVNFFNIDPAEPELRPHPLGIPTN

Structure (SMILES)	Ki [1]	Imax [2]	IC50 [3]	other results
O=S(=O)(c1cccc(Cl)c1)n1c2c(c3ccccc31)CCNC2	41.7 nM			
Cc1ccc(S(=O)(=O)n2cc(C[C@@H]3CCCN3C)c3ccccc32)cc1	5 nM	78.5%	56.3 nM	
Cc1nn(C)c(Cl)c1S(=O)(=O)n1cc(C2=CCCNC2)c2ccccc21	8 nM			EC50 [4]: 89.5 nM; Emax [5]: 50%
O=S(=O)(c1ccc(Cl)s1)n1cc(C[C@@H]2CCCN2)c2ccccc21	25 nM			
O=S(=O)(c1ccccc1)n1cc(C[C@@H]2CCCN2)c2ccccc21	27.7 nM			
Nc1ccc(S(=O)(=O)n2cc(C[C@@H]3CCCN3)c3ccccc32)cc1	7 nM	72.9%	7.6 nM	
Cc1ccc(S(=O)(=O)n2c3c(c4ccccc42)CCNC3)cc1	271 nM			
CN1CCC[C@H]1Cc1cn(S(=O)(=O)c2cccc(Cl)c2)c2ccccc12	4 nM	77%	96.2 nM	
O=S(=O)(c1ccc(Cl)cc1)n1cc(C2=CCCNC2)c2ccccc21	22 nM			
O=S(=O)(c1ccccc1)n1c2c(c3ccccc31)CCNC2	253 nM			
Nc1ccc(S(=O)(=O)n2cc(C3CCN(Cc4ccccc4)C3)c3ccccc32)cc1 (centres undefined)		97%	25 nM	
CN1CCC[C@H]1Cc1cn(S(=O)(=O)c2ccc(Cl)c(Cl)c2)c2ccccc12	12 nM	86.5%	7.3 nM	
COc1ccc(S(=O)(=O)n2cc(C[C@@H]3CCCN3C)c3ccccc32)cc1OC	8 nM	100%	0.8 nM	
Cc1c(S(=O)(=O)n2cc(C[C@@H]3CCCN3C)c3ccccc32)sc2ccc(Cl)cc12	11 nM	87.5%	11 nM	
O=S(=O)(c1ccccc1F)n1cc(C2=CCCNC2)c2ccccc21	9.2 nM			EC50 [4]: 51 nM; Emax [5]: 52%
COc1ccc(S(=O)(=O)n2cc(C[C@@H]3CCCN3)c3ccccc32)cc1OC	23 nM			
CN1CCC[C@H]1Cc1cn(S(=O)(=O)c2ccc(Br)s2)c2ccccc12	3 nM	96%	112 nM	
Cc1c(S(=O)(=O)n2cc(C[C@H]3CCCN3)c3ccccc32)sc2ccc(Cl)cc12	284 nM			
Cc1nc(N)sc1S(=O)(=O)n1cc(C2CCN(Cc3ccccc3)C2)c2ccccc21 (centres undefined)		97%	110 nM	
Cc1ccc(S(=O)(=O)n2cc(C3CCN(Cc4ccccc4)C3)c3ccccc32)cc1 (centres undefined)		72%	123 nM	
CN1CCC(c2cn(S(=O)(=O)c3ccc(Cl)c(Cl)c3)c3ccccc23)C1 (centres undefined)		100%	107 nM	
O=S(=O)(c1ccc(Cl)c(Cl)c1)n1cc(C2CCN(Cc3ccccc3)C2)c2ccccc21 (centres undefined)		63%	61 nM	
O=S(=O)(c1ccccc1Br)n1cc(C2CCN(Cc3ccccc3)C2)c2ccccc21 (centres undefined)		62%	21 nM	
O=S(=O)(c1ccccc1)n1cc(C2=CCCNC2)c2ccccc21	4.6 nM			EC50 [4]: 159 nM; Emax [5]: 41%

Structure (SMILES)	Ki [1]	Imax [2]	IC50 [3]	other results
O=S(=O)(c1cccc(Cl)c1)n1cc(C[C@@H]2CCCN2)c2ccccc21	22 nM			
O=S(=O)(c1ccc(F)c(F)c1)n1cc(C2CCCNC2)c2ccccc21 (centres undefined)				EC50 [4]: 66 nM; Emax [5]: 60.5%
O=S(=O)(c1ccc(Cl)c(Cl)c1)n1cc(C2=CCCNC2)c2ccccc21	48 nM			
COc1ccc(S(=O)(=O)n2cc(C[C@@H]3CCCN3C)c3ccccc32)cc1	19.3 nM			
O=S(=O)(c1ccccc1)n1cc(C2CCCNC2)c2ccccc21 (racemic) [listing 1 of 2 here]				Emax [5]: 100%
CN1CCC[C@H]1Cc1cn(S(=O)(=O)c2ccc(Cl)cc2)c2ccccc12	7 nM	86%	8.2 nM	
O=S(=O)(c1cccc(F)c1)n1cc(C2=CCCNC2)c2ccccc21	8.5 nM			EC50 [4]: 270 nM; Emax [5]: 51.5%
CN1CCC[C@@H]1Cc1cn(S(=O)(=O)c2ccccc2)c2ccccc12	8 nM	75%	0.6 nM	
O=S(=O)(c1ccccc1)n1cc(C2CCCNC2)c2ccccc21 (stereo in doubt) [listing 1 of 2 here]	1 nM			EC50 [4]: 36 nM
O=S(=O)(c1ccc(Cl)cc1)n1cc(C[C@@H]2CCCN2)c2ccccc21	49 nM			
O=S(=O)(c1ccc(Br)s1)n1cc(C[C@@H]2CCCN2)c2ccccc21	20 nM			
Cc1nc(C)c(S(=O)(=O)n2cc(C3=CCCNC3)c3ccccc32)o1	58 nM			
CN1CCC[C@H]1Cc1cn(S(=O)(=O)c2ccc(N)cc2)c2ccccc12	3 nM	100%	24.5 nM	
CN1CCC[C@H]1Cc1cn(S(=O)(=O)c2ccccc2Br)c2ccccc12	7 nM	87.5%	76.5 nM	
O=S(=O)(c1cccs1)n1cc(C2CCCNC2)c2ccccc21 (centres undefined)	9.8 nM			
Cc1ccc(S(=O)(=O)n2cc(C[C@@H]3CCCN3)c3ccccc32)cc1	33 nM			
COc1ccc(S(=O)(=O)n2cc(C3CCCNC3)c3ccccc32)cc1 (centres undefined)		65.5%	7.3 nM	
O=S(=O)(c1ccc(Br)s1)n1cc(C2CCN(Cc3ccccc3)C2)c2ccccc21 (centres undefined)		69%	110 nM	
O=S(=O)(c1cccc(C(F)(F)F)c1)n1cc(C2=CCCNC2)c2ccccc21	44.7 nM			
CN1CCC[C@H]1Cc1cn(S(=O)(=O)c2ccc(Cl)s2)c2ccccc12	4 nM	99%	1 nM	
CN1CCC[C@H]1Cc1cn(S(=O)(=O)c2ccc(I)cc2)c2ccccc12	3 nM	99.5%	49.5 nM	
O=S(=O)(c1ccc(Cl)c(Cl)c1)n1cc(C[C@@H]2CCCN2)c2ccccc21	49 nM			
O=S(=O)(c1ccccc1)n1cc(C2CCCNC2)c2ccccc21 (stereo in doubt) [listing 2 of 2 here]				Emax [5]: 100%
O=S(=O)(c1ccccc1)n1cc(C2CCCNC2)c2ccccc21 (single isomer, unassigned; enantiomer 1) [listing 1 of 2 here]				Emax [5]: 0%

Structure (SMILES)	Ki [1]	Imax [2]	IC50 [3]	other results
Nc1ccc(S(=O)(=O)n2c3c(c4ccccc42)CCNC3)cc1	116 nM			
O=S(=O)(c1ccc(F)cc1F)n1cc(C2=CCCNC2)c2ccccc21	13 nM			
CN1CCC(c2cn(S(=O)(=O)c3ccc(F)cc3)c3ccccc23)C1 (centres undefined)		83.5%	52.5 nM	
O=S(=O)(c1cccc(Cl)c1Cl)n1cc(C2=CCCNC2)c2ccccc21	20 nM			
COc1ccc(S(=O)(=O)n2cc(C3=CCCNC3)c3ccccc32)cc1	16 nM			
O=S(=O)(c1ccc(Cl)s1)n1cc(C2=CCCNC2)c2ccccc21	22.7 nM			
COc1ccc(S(=O)(=O)n2cc(C[C@@H]3CCCN3)c3ccccc32)cc1	40 nM			
CN1CCC(c2cn(S(=O)(=O)c3ccc(N)cc3)c3ccccc23)C1 (centres undefined)		89.5%	15.5 nM	
O=S(=O)(c1cccc(Cl)c1)n1cc(C2=CCCNC2)c2ccccc21	14 nM			
O=S(=O)(c1ccccc1Cl)n1cc(C2=CCCNC2)c2ccccc21	13 nM			
CN1CCC(c2cn(S(=O)(=O)c3ccc(Cl)cc3)c3ccccc23)C1 (centres undefined)		86.5%	85.5 nM	
O=S(=O)(c1ccccc1)n1cc(C2CCCNC2)c2ccccc21 (racemic) [listing 2 of 2 here]				EC50 [4]: 24 nM
CN1CCC[C@H]1Cc1cn(S(=O)(=O)c2ccccc2)c2ccccc12	5 nM	87%	81.4 nM	
CN1CCC(c2cn(S(=O)(=O)c3ccccc3Br)c3ccccc23)C1 (centres undefined)		98.5%	53.3 nM	
CN1CCC(c2cn(S(=O)(=O)c3ccc(I)cc3)c3ccccc23)C1 (centres undefined)		93.5%	43.6 nM	
O=S(=O)(c1ccc(I)cc1)n1cc(C[C@@H]2CCCN2)c2ccccc21	34 nM			
O=S(=O)(c1ccc(Cl)s1)n1cc(C2CCCNC2)c2ccccc21 (centres undefined)				EC50 [4]: 58.5 nM; Emax [5]: 93%
Cc1c(S(=O)(=O)n2cc(C3CCCNC3)c3ccccc32)sc2ccc(Cl)cc12 (centres undefined)	44 nM			
COc1ccc(S(=O)(=O)n2cc(C3CCN(C)C3)c3ccccc32)cc1OC (centres undefined)		100%	96.7 nM	
O=S(=O)(c1ccc(F)c(F)c1)n1cc(C2=CCCNC2)c2ccccc21	26 nM			
O=S(=O)(c1ccccc1C(F)(F)F)n1cc(C2=CCCNC2)c2ccccc21	21.7 nM			
O=S(=O)(c1ccccc1)n1cc(C2CCCNC2)c2ccccc21 (single isomer, unassigned; enantiomer 1) [listing 2 of 2 here]	3 nM			
O=S(=O)(c1ccccc1Br)n1cc(C[C@@H]2CCCN2)c2ccccc21	43 nM			
